Assay results as given in patent publication US6551812B1, “Compositions and methods relating to the peroxisomal proliferator activated receptor-α mediated pathway” (CuraGen Corporation, priority 1998, dated 2003).
Where two headings read alike, the source gives them in different places.

Assays:
[1] = tested on: GSTa isoform; conditions: rat livers, precancerous change; cited from earlier work
[2] = tested on: acetyl CoA carboxylase; conditions: co-incubation of hepatocytes with ligand; cited from earlier work
[3] = tested on: CYP2B1; conditions: rat hepatocytes; cited from earlier work
[4] = tested on: genes responsive to PPARαL treatment in rat liver; test: GENECALLING differential gene expression analysis of liver from rats treated with PPARα ligand GW9578 vs vehicle control; assay type: in vivo
Method: The present invention is based in part on the discovery of changes in expression patterns of multiple nucleic acid sequences, including sequences encoding known genes as well as heretofore undescribed nucleic acid sequences, in rodent liver cells following exposure to a ligand for a PPARα. The differences in gene expression were identified following administration of 1.5 mg/kg/day of a PPARα-specific ligand named GW9578. This compound is described in Brown et al., J. Med. Chem.42:3785-8, 1999, whose contents are incorporated herein in their entirety.
GW9578 was administered to male 10-14 week old Sprague Dawley rats in b.i.d. dosing for 3 days. The animals were sacrificed 24 hours following the last dose, and liver tissue was analysis using the GENECALLING® sequence identification methods described U.S. Pat. No. 5,871,697. The contents of this application are incorporated herein by reference in their entirety.
The GENECALLING® sequence identification method is performed by digesting a cDNA with a pair of restriction endonucleases. The digested fragments are differentially tagged at both the 3- and 5′-termini, and amplified via polymerase chain reaction (PCR) with a fluorescent label that is detected upon subsequent electrophoresis. In the studies with PPARα ligand GW9578, a total of 48 different reactions were performed, each with a unique pair of restriction enzymes. […] This number represents a non-redundant coverage of approximately 85% of the total number of hepatic genes.
The hepatic response to treatment with the PPARαL compound was determined by comparing in triplicate the relative abundance of each of the 8973 gene fragments in the PPARαL-treated vs. the PPARα-untreated rodents. Comparison was performed using commercially available GENESCAPE® expression analysis software. PPARαL administration detectably altered the expression of 218 of the 8973 (2.4%) hepatic genes fragments by greater than 1.5-fold. […] Novel genes, corresponding to fragments with no match within the database, were subsequently isolated and sequenced (FIG. 4). […] There was an excellent correlation between the expression analysis results derived by the GENECALLING® sequence identification methods in comparison with those results previously obtained by the use of reverse transcriptase-based PCR (“RT-PCR”) (See FIG. 3).
Harlan Sprague Dawley rats 10-14 weeks old were treated with oral tablet doses of: (i) PPARαL in an n-methylglucamine carrier twice daily (b.i.d) for a total of 3 days (3 rats total) or (ii) PPARαL in an n-methylglucamine carrier twice daily (b.i.d.) for a total of 3 days (3 rats total) or (iii) the n-methylglucamine carrier alone twice daily (b.i.d.) for a total of 3 days (3 rats total). On the fourth day, approximately 12 hours following the last dose of drug the animals were sacrificed. Liver and adipose tissue were harvested from all animals and snap frozen in liquid nitrogen.
Total cellular RNA was isolated with Trizol (GIBCO-BRL; Baltimore Md.) using a one-tenth volume of bromochloropropane (Molecular Research Corp.; Cincinnati, Ohio) to facilitate phase separation. Contaminating DNA was removed by treatment with DNase I (Promega Biotech; Milwaukee, Wis.) in the presence of 0.01 M DTT (GIBCO-BRL; Baltimore, Md.) and 1 Unit/1 RNAsin (Promega Biotech; Milwaukee, Wis.). Following phenol/chloroform extraction, RNA quality was evaluated by spectrophotometry and formaldehyde agarose gel electrophoresis, and RNA yield was estimated by fluorometry with OliGreen® (Molecular Probes; Eugene, Oreg.). Poly(A)^+ RNA was prepared from […] of total RNA by use of oligo(dT) paramagnetic beads (PerSeptive Biosynthesis; Boston, Mass.), and quantitated with fluorometry.
First strand cDNA was prepared from […] of poly(A)^+ RNA with 200 pmoles oligo(dT)25V (where V=A, C or G) (PerSeptive Biosynthesis; Boston, Mass.) using 40 Units of SuperScript II reverse transcriptase (GIBCO-BRL; Baltimore, Md.). […]

[5] = tested on: Histidine decarboxylase; conditions: rat stomach; cited from earlier work
[6] = tested on: CYP2B1; conditions: in vivo mouse model; cited from earlier work
[7] = rat liver, 1.5 mg/kg/day b.i.d. 3 days, vs vehicle control
[8] = rat liver, treatment with PPARαL
[9] = rat liver, upon treatment with PPARα ligand

SMILES: CC(C)(Oc1ccc(C2CCCc3ccccc32)cc1)C(=O)O (stereo not shown) [nafenopin]
- GSTa isoform level [1]: decrease
- acetyl CoA carboxylase activity [2]: reduced

SMILES: CC(C)(Oc1ccc(Cl)cc1)C(=O)O [clofibric acid]
- gene encoding CYP2B1, expression [3]: upregulated

SMILES: CCCCCCCN(CCc1ccc(SC(C)(C)C(=O)O)cc1)C(=O)Nc1ccc(F)cc1F [GW9578]
- number of the 8973 hepatic gene fragments whose expression was altered by greater than 1.5-fold ([4]; 1.5 mg/kg/day, b.i.d. for 3 days, male Sprague Dawley rats, liver, treated vs untreated, triplicate): 218
- D-aminolevulinate synthetase up-regulation [4, 7]: 4 fold
- acetoacetyl-CoA thiolase upregulation [4, 7]: 100 fold
- acetyl-CoA-decarboxylase modulation [4, 7]: +2 fold
- apolipoprotein A-I modulation [4, 7]: −2 fold
- carnitine octanoyl transferase upregulation [4, 7]: 4 fold
- catalase upregulation [4, 7]: 12 fold
- down-regulation of metallothionein 1 [4, 7]: 100 fold
- epoxide hydrolase upregulation [4, 7]: 10 fold
- novel isoform of acyl-CoA oxidase upregulation [4, 7]: 10 fold
- porphobilinogen deaminase up-regulation [4, 7]: 60 fold
- reduction in steroid 3-α-dehydrogenase transcript levels [4, 7]: 60 fold
- steroid 3-delta-dehydrogenase modulation [4, 7]: off
- very long chain acyl CoA synthetase upregulation [4, 7]: 4 fold
- novel gene similar in sequence to mouse carnitine acetyltransferase, expression ([4]; rat liver, following PPARα ligand treatment): moderately upregulated
- histidine decarboxylase gene upregulation ([4]; rat liver, following exposure to PPARα ligand): six
- 17-α-hydroxysteroid dehydrogenase IV transcription [4, 8]: up-regulated
- genes encoding the other steroid catabolism enzymes (steroid-3-α-dehydrogenase, hydroxysteroid sulfotransferase, CYP p450 M1, SMP-2, UDP-glucosuronyl transferase 21) [4, 8]: downregulated
- acetyl-CoA carboxylase expression [4, 9]: upregulation
- decrease in expression of the gene for glutathione S transferase Ya subunit [4, 9]: three
- differential regulation of ATP citrate lyase and fatty acid synthase [4, 9]: not detected
- malic enzyme expression [4, 9]: upregulation
- stearyl-CoA desaturase expression [4, 9]: upregulation

SMILES: CC(C)(Oc1ccc(C2CC2(Cl)Cl)cc1)C(=O)O (stereo not shown) [ciprofibrate]
- histidine decarboxylase expression [5]: upregulated

SMILES: CCOC(=O)C(C)(C)Oc1ccc(Cl)cc1 [clofibrate]
- gene encoding CYP2B1, expression [6]: not been observed to change
